≈ marks a conversion by molar mass, not a printed value.
Assays:
[1] = Antioxidant activity assessed as DPPH radical scavenging activity after 30 mins by spectrophotometric analysis; format: physicochemical
[2] = test system: Mycobacterium tuberculosis; test: Antitubercular activity against dormant phase Mycobacterium tuberculosis H37Ra ATCC 25177 incubated for 12 days by XTT reduction menadione assay; format: functional, organism-based; conditions: 288 h
[3] = Selectivity index, ratio of GI50 for human THP1 cells to MIC for dormant phase Mycobacterium tuberculosis H37Ra ATCC 25177; format: toxicity, cell-based, THP-1; conditions: read-out: Selectivity Index
[4] = Selectivity index, ratio of GI50 for human A549 cells to MIC for dormant phase Mycobacterium tuberculosis H37Ra ATCC 25177; format: toxicity, cell-based; conditions: read-out: Selectivity Index
[5] = Cytotoxicity against human THP1 cells assessed as growth inhibition after 48 hrs by MTT assay; format: cell-based, THP-1; conditions: for GI50 at 48 h: THP1 cells; for GI90: thp-1, 48 h
[6] = Cytotoxicity against human PANC1 cells assessed as growth inhibition after 48 hrs by MTT assay; format: cell-based, PANC-1; conditions: for GI50 at 48 h: PANC1 cells; for GI90: panc-1, 48 h
[7] = Selectivity index, ratio of GI50 for human PANC1 cells to MIC for dormant phase Mycobacterium tuberculosis H37Ra ATCC 25177; format: toxicity, cell-based, PANC-1; conditions: read-out: Selectivity Index
A549 = test: (§1) Cytotoxicity against human A549 cells assessed as growth inhibition after 48 hrs by MTT assay; format: cell-based; conditions: a549, 48 h
[8] = as §1; format: cell-based; conditions: A549 cells

Row | SMILES | IC50 [1] [mg/L] | IC50 [2] [mg/L] | MIC [2] [mg/L] | selectivity ratio [3] | selectivity ratio [4] | GI50 at 48 h [5] [mg/L] | GI90 [5] [mg/L] | GI50 at 48 h [6] [mg/L] | GI90 [6] [mg/L] | selectivity ratio [7] | GI90 (A549) [mg/L] | GI50 at 48 h [8] [mg/L]
1 | O=[N+]([O-])c1cccc(Cn2cc(COc3ccccc3)nn2)c1 | 25.3 (≈ 81.5 µM) | 2.4 (≈ 7.73 µM) | > 30 |  |  |  |  |  |  |  |  | 
2 | O=[N+]([O-])c1ccc(Cn2cc(COc3ccc(Cl)cc3)nn2)cc1 | 24.2 (≈ 70.2 µM) | 3.6 (≈ 10.4 µM) | 27.5 (≈ 79.8 µM) | 1.1 | > 3.6 | 31.1 (≈ 90.2 µM) | 88.9 (≈ 258 µM) | > 100 | > 100 | > 3.6 | > 100 | > 100
3 | O=[N+]([O-])c1cccc(Cn2cc(COc3ccc(Cl)cc3)nn2)c1 | 21.3 (≈ 61.8 µM) | 2.6 (≈ 7.54 µM) | 29.2 (≈ 84.7 µM) | 1.2 | > 3.4 | 34.9 (≈ 101 µM) | 97.6 (≈ 283 µM) | > 100 | > 100 | > 3.4 | > 100 | > 100
4 | Brc1ccc(Cn2cc(COc3ccccc3)nn2)cc1 | 18.3 (≈ 53.2 µM) | 3.2 (≈ 9.3 µM) | 28.9 (≈ 84 µM) | 0.6 | > 3.5 | 16.2 (≈ 47.1 µM) | 68.3 (≈ 198 µM) | > 100 | > 100 | > 3.5 | > 100 | > 100
5 | Cc1ccc(OCc2cn(Cc3cccc([N+](=O)[O-])c3)nn2)cc1 | 12.1 (≈ 37.3 µM) | 2.4 (≈ 7.4 µM) | > 30 |  |  |  |  |  |  |  |  | 
6 | O=[N+]([O-])c1cccc(OCc2cn(Cc3ccc(Cl)cc3)nn2)c1 | 37.3 (≈ 108 µM) | 53.4 (≈ 155 µM) | > 100 |  |  |  |  |  |  |  |  | 
7 | O=[N+]([O-])c1cccc(OCc2cn(Cc3ccc(Br)cc3)nn2)c1 | 29.4 (≈ 75.5 µM) | 43.2 (≈ 111 µM) | > 100 |  |  |  |  |  |  |  |  | 
8 | Cc1cc(C(C)(C)C)c(O)c(C(C)(C)C)c1 [BUTYLATED HYDROXYTOLUENE] | 16.5 (≈ 74.9 µM) |  |  |  |  |  |  |  |  |  |  | 
9 | Clc1ccc(OCc2cn(Cc3cccc(Cl)c3)nn2)cc1 | 23.3 (≈ 69.7 µM) | 2.9 (≈ 8.68 µM) | 25.8 (≈ 77.2 µM) | 0.8 | > 3.9 | 20.9 (≈ 62.5 µM) | > 100 | > 100 | > 100 | > 3.9 | > 100 | > 100
10 | Clc1cc(Cl)c(OCc2cn(Cc3ccc(Br)cc3)nn2)c(Cl)c1 | 14 (≈ 31.3 µM) | 0.9 (≈ 2.01 µM) | 27.8 (≈ 62.1 µM) | 2.1 | > 3.6 | 58.7 (≈ 131 µM) | > 100 | > 100 | > 100 | > 3.6 | > 100 | > 100
11 | O=[N+]([O-])c1ccc(OCc2cn(Cc3ccc(Br)cc3)nn2)c(I)c1 | 18.5 (≈ 35.9 µM) | 25 (≈ 48.5 µM) | > 30 |  |  |  |  |  |  |  |  | 
12 | Clc1ccc(OCc2cn(Cc3ccc(Br)cc3)nn2)cc1 | 11 (≈ 29.1 µM) | 0.5 (≈ 1.32 µM) | 5.8 (≈ 15.3 µM) | 9.2 | > 17.3 | 52.9 (≈ 140 µM) | > 100 | > 100 | > 100 | > 17.3 | > 100 | > 100
13 | Clc1ccc(Cn2cc(COc3c(Cl)cc(Cl)cc3Cl)nn2)cc1 | 27.2 (≈ 67.5 µM) | 0.8 (≈ 1.98 µM) | 7.7 (≈ 19.1 µM) | 3.2 | > 12.9 | 25.1 (≈ 62.3 µM) | > 100 | > 100 | > 100 | > 12.9 | > 100 | > 100
14 | CC(=O)O[C@H]1C(=O)[C@@]2(C)[C@H]([C@H](OC(=O)c3ccccc3)[C@]3(O)C[C@H](OC(=O)[C@H](O)[C@@H](NC(=O)c4ccccc4)c4ccccc4)C(C)=C1C3(C)C)[C@]1(OC(C)=O)CO[C@@H]1C[C@@H]2O [PACLITAXEL] |  |  |  | > 2330 | > 2330 | 0.14 (≈ 0.164 µM) | 5.82 (≈ 6.82 µM) | 0.004 (≈ 0.00468 µM) | 0.07 (≈ 0.082 µM) | > 2330 | 5.72 (≈ 6.7 µM) | 0.13 (≈ 0.152 µM)
15 | O=[N+]([O-])c1cccc(Cn2cc(COc3c(Cl)cc(Cl)cc3Cl)nn2)c1 | 29.2 (≈ 70.6 µM) | 2.6 (≈ 6.29 µM) | > 30 |  |  |  |  |  |  |  |  | 
16 | Clc1ccc(Cn2cc(COc3ccc(Cl)cc3)nn2)cc1 | 26.1 (≈ 78.1 µM) | 0.7 (≈ 2.09 µM) | 8.2 (≈ 24.5 µM) | 2.1 | > 12.2 | 17.4 (≈ 52.1 µM) | 89.7 (≈ 268 µM) | > 100 | > 100 | > 12.2 | > 100 | > 100

— ChEMBL document CHEMBL3739373, “1,2,3-Triazole derivatives as antitubercular agents: synthesis, biological evaluation and molecular docking study” (Medchemcomm, 2015)
